Experimental data taken from the supplement of paper PMC10307832.

Tests used:
Experiment in all cases: relative viability (nuclei count vs DMSO), 5 days (fraction); higher = more cells survive
[1] = compound: NS(=O)(=O)OC[C@@H]1C[C@@H](n2ccc3c(N[C@H]4CCc5ccccc54)ncnc32)C[C@@H]1O [MLN4924] + CC1(C)CCC(c2ccc(Cl)cc2)=C(CN2CCN(c3ccc(C(=O)NS(=O)(=O)c4ccc(N[C@H](CCN5CCOCC5)CSc5ccccc5)c(S(=O)(=O)C(F)(F)F)c4)cc3)CC2)C1 [Navitoclax] (partner 0.5 µM)
How it was run: (§1)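 Each reported value is a median over duplicate plates. It expresses relative viability: treated-well nuclei count divided by vehicle-well nuclei count. Lung cancer cell lines in 1536-well plates were dosed by pin tool a day after seeding, alone with one drug or with a fixed anchor-drug dose plus five library-drug doses (not always all listed) in √10 steps, and nuclei were counted after 5 days.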

[2] = compound: NS(=O)(=O)OC[C@@H]1C[C@@H](n2ccc3c(N[C@H]4CCc5ccccc54)ncnc32)C[C@@H]1O [MLN4924] + NC(=O)Nc1cc(-c2cccc(F)c2)sc1C(=O)N[C@H]1CCCNC1 [AZD7762] (partner 0.2 µM)
How it was run: as §1

[3] = compound: C1CC(C1)(C(=O)O)C(=O)O.[NH2-].[NH2-].[Pt+2] [Carboplatin] + CC(=O)c1c(C)c2cnc(Nc3ccc(N4CCNCC4)cn3)nc2n(C2CCCC2)c1=O [Palbociclib] (partner 0.5 µM)
How it was run: as §1

[4] = compound: CC[C@H](C)N1C=C(C2=C(C=C(C=C21)C3=CN=C(C=C3)N4CCNCC4)C(=O)NCC5=C(C=C(NC5=O)C)C)C [GSK126] + Cc1cc(Nc2cc(N3CCN(C)CC3)nc(Sc3ccc(NC(=O)C4CC4)cc3)n2)n[nH]1 [Tozasertib] (partner 0.1 µM)
How it was run: as §1

Cell Line	relative viability ([1]; first compound 0.04 µM)	relative viability ([1]; first compound 0.1265 µM)	relative viability ([1]; first compound 0.4 µM)	relative viability ([1]; first compound 1.265 µM)	relative viability ([1]; first compound 4 µM)	relative viability ([2]; first compound 0.04 µM)	relative viability ([2]; first compound 0.1265 µM)	relative viability ([2]; first compound 0.4 µM)	relative viability ([2]; first compound 1.265 µM)	relative viability ([2]; first compound 4 µM)	relative viability ([3]; first compound 0.08 µM)	relative viability ([3]; first compound 0.253 µM)	relative viability ([3]; first compound 0.8 µM)	relative viability ([3]; first compound 2.53 µM)	relative viability ([3]; first compound 8 µM)	relative viability ([4]; first compound 0.08 µM)	relative viability ([4]; first compound 0.253 µM)	relative viability ([4]; first compound 0.8 µM)	relative viability ([4]; first compound 2.53 µM)	relative viability ([4]; first compound 8 µM)
201T	1.28	1.21	1.2	0.514	0.556	0.822	0.624	0.391	0.235	0.242	0.374	0.356	0.37	0.336	0.362	0.893	1.05	0.944	0.944	0.836
A549	1.02	0.991	0.197	0.04	0.0449															
A-427	0.468	0.321	0.273	0.221	0.227	0.502	0.324	0.366	0.172	0.217	0.585	0.509	0.542	0.484	0.488	0.227	0.245	0.189	0.226	0.162
ABC-1						0.985	1.17	0.52	0.23	0.258	0.976	0.805	0.886	0.651	0.504	0.159	0.135	0.217	0.167	0.17
BEN	0.0403	0.0516	0.045	0.0476	0.0518	0.66	0.76	0.561	0.321	0.264	0.467	0.442	0.488	0.44	0.494	0.516	0.388	0.669		0.462
CAL-12T	1.11	1.11	0.469	0.398	0.204	0.522	0.514	0.365	0.274	0.247	0.402	0.514	0.506	0.483	0.406	0.324	0.358	0.301	0.189	0.184
COR-L23	0.948	0.885	0.568	0.275	0.113						0.32	0.303	0.226	0.196	0.123	0.206	0.228	0.208	0.168	0.175
COR-L 105	0.725	0.511	0.326	0.231	0.281						0.442	0.427	0.384	0.379	0.414	0.355	0.31	0.402	0.312	0.264
Calu-6	0.667	0.232	0.162	0.119	0.128															
ChaGo-K-1	0.708	0.574	0.394	0.309	0.326	0.861	0.701	0.508	0.193	0.159	0.913	0.937	0.837	0.749	0.535	0.237	0.238	0.216	0.233	0.201
EBC-1	0.348	0.262	0.172	0.112	0.139															
